From US5340565A, “Tumor or cancer cell killing therapy and agents useful therefor” (priority 1992, dated 1994)
Read-outs that look alike come from different tables or passages of the source. Each block holds one compound with its values, some of them ahead of it.

How the values were obtained:
ADPRT = conditions: Sims et al, Biochem. 21:1813-1821, 1982; cited from earlier work
[1] = system: human squamous cell carcinoma (SCC) (ABII) of the head and neck xeno-grafted to nude mice; experiment: Growth of human SCC (ABII) xenografted to nude mice, CDDP with or without metoclopramide; assay type: in vivo; conditions: for Reduction in AUC (area under plotted tumor growth curves), agent given alone: schedules A and B, metoclopramide 2.0 mg/kg i.p. (x1 or x3), CDDP 7.5 mg/kg i.p.
Experimental: Cisplatin (cis-diamine-dichloroplatinum=CDDP) is a heavy metal complex with alkylating properties which allow bifunctional linking to DNA. CDDP has been used successfully as a chemotherapeutic agent to treat several types of human cancers. Since CDDP treatment regimes induce nausea and vomiting, metoclopramide is often co-administered therewith as an antiemetic drug.
Two administration schedules were tested: (A) metoclopramide (2.0 mg/kg i.p.) one hour before CDDP (7.5 mg/kg i.p.) and (B) metoclopramide (2.0 mg/kg×3 treatment times) given separately concomitant to CDDP (7.5 mg/kg i.p.) and 24 hr and 48 hr after CDDP administration. In both schedules the combined treatment was compared with CDDP alone, metoclopramide alone and with physiologic saline treated tumor bearing animals (controls). The tumor line used was a poorly difterentiated human SSC originating from the nose. There were n=10 animals in each group. Tumor diameters and animal weight were recorded and plotted twice weekly for 21 days. Treatment efficacies were compared using the area under the plotted growth curves (AUC).

[2] = Cytotoxicity by trypan blue exclusion in HML; assay type: cell-based; conditions: human, mononuclear leukocytes
[3] = system: ADPRT (adenosine diphosphate ribosyl transferase); experiment: ADPRT activity in permeabilized HML after 30 min exposure; assay type: cell-based, human; conditions: average of duplicates
Experimental: The data were recorded as cpm TCA precipitable [^3 H]NAD per 1×10^6 cells.

[4] = system: Human mononuclear leukocytes (HML); experiment: Cytotoxicity by trypan blue exclusion in HML; assay type: cell-based; conditions: for % Dead Cells 30 min: 0.5 h
[5] = system: adenocarcinoma transplanted in C3H mice; conditions: dose of 10 mg/kg, Kjellen and Pero 1987 abstract; cited from earlier work
calmodulin = conditions: cited from earlier work
[6] = 100 μM agent, 30 min incubation, HML, read-out: % Dead Cells 30 min
[7] = 500 μM agent, 30 min incubation, HML, read-out: % Dead Cells 30 min

Compound: Nc1cccc(C(=O)O)c1 [3-aminobenzoic acid]
Inhibition of ADPRT (ADPRT): failed to inhibit ADPRT

Compound: Nc1ccc(C(=O)O)cn1 [6-amino nicotinic acid]
Inhibition of ADPRT (ADPRT): failed to inhibit ADPRT

Compound: N.N.[Cl][Pt][Cl] [CDDP, cis-diamine-dichloroplatinum]
AUC as % of control tumor growth ([1]; schedule B: CDDP 7.5 mg/kg i.p., metoclopramide 2.0 mg/kg x3 (concomitant, 24 hr, 48 hr), 21 days): 72 % of control tumor growth
Reduction in AUC (area under plotted tumor growth curves), agent given alone ([1]; 21 days): significant reduction of AUC-values

Compound: CN(C)CCCN1c2ccccc2Sc2ccc(Cl)cc21 [Chlorpromazine, 2chloro-N,N-dimethyl-10H-phenothiazine-10-propanamine]
cytotoxicity at 0.5 h, 100 µM [2, 6]: 50%
cytotoxicity at 0.5 h, 500 µM [2, 7]: 100%
ADPRT Activity ([3]; 100 μM agent): 1508 cpm TCA precipitable [3H]NAD p
ADPRT Activity ([3]; 500 μM agent): 890 cpm TCA precipitable [3H]NAD p

Compound: CC(CN1CCN(CCOCCO)CC1)CN1c2ccccc2Sc2ccccc21 (centres unmarked) [Dixyrazine]
cytotoxicity at 0.5 h, 100 µM [2, 6]: 13%
cytotoxicity at 18 h, 100 µM ([2]; 100 μM agent, 18 hr incubation, HML, read-out: % Dead Cells 18 hr): 78%
cytotoxicity at 0.5 h, 500 µM [2, 7]: 79%
cytotoxicity at 18 h, 500 µM ([2]; 500 μM agent, 18 hr incubation, HML, read-out: % Dead Cells 18 hr): 100%
ADPRT Activity ([3]; 100 μM agent): 385 cpm TCA precipitable [3H]NAD p
ADPRT Activity ([3]; 500 μM agent): 850 cpm TCA precipitable [3H]NAD p

ADPRT Activity ([3]; 100 μM agent): 1800 cpm TCA precipitable [3H]NAD p
ADPRT Activity ([3]; 300 μM agent): 2700 cpm TCA precipitable [3H]NAD p
ADPRT Activity ([3]; 500 μM agent): 2900 cpm TCA precipitable [3H]NAD p
ADPRT Activity ([3]; 1000 μM agent): 3000 cpm TCA precipitable [3H]NAD p
Compound: OO [H2 O2]
% Dead Cells 30 min ([4]; 100 µM): 5%
% Dead Cells 30 min ([4]; 300 µM): 5%
% Dead Cells 30 min ([4]; 500 µM): 7%
% Dead Cells 30 min ([4]; 1000 µM): 12%
% Dead Cells 18 hr ([4]; 100 µM): 40%
% Dead Cells 18 hr ([4]; 300 µM): 41%
% Dead Cells 18 hr ([4]; 500 µM): 55%
% Dead Cells 18 hr ([4]; 1000 µM): 71%

Compound: CCN(CC)CCNC(=O)c1cc(Cl)c(N)cc1OC [Metoclopramide, 4-amino-5-chloro-N-[(2-diethylamino)ethyl]-2-methoxy-benzamide]
Effect of adding metoclopramide to CDDP on AUC ([1]; schedule A: metoclopramide 2.0 mg/kg i.p. one hour before CDDP 7.5 mg/kg i.p.): did not give any additive effect
Effect of adding metoclopramide to CDDP on AUC ([1]; schedule B: metoclopramide 2.0 mg/kg x3, concomitant to CDDP 7.5 mg/kg i.p. and 24 hr and 48 hr after): potentiated the effect of CDDP
Reduction in AUC (area under plotted tumor growth curves), agent given alone ([1]; 21 days): In neither schedule A nor B did metoclopramide alone induce any significant reduction in AUC
cytotoxicity at 0.5 h, 500 µM [2]: 7%
cytotoxicity at 0.5 h, 2000 µM [2]: 13%
cytotoxicity at 0.5 h, 5000 µM [2]: 10%
cytotoxicity at 0.5 h, 10000 µM [2]: 22%
cytotoxicity at 18 h, 500 µM [2]: 8%
cytotoxicity at 18 h, 2000 µM [2]: 29%
cytotoxicity at 18 h, 5000 µM [2]: 58%
cytotoxicity at 18 h, 10000 µM [2]: 88%
ADPRT Activity ([3]; 500 μM agent): 530 cpm TCA precipitable [3H]NAD p
ADPRT Activity ([3]; 2000 μM agent): 703 cpm TCA precipitable [3H]NAD p
ADPRT Activity ([3]; 5000 μM agent): 950 cpm TCA precipitable [3H]NAD p
ADPRT Activity ([3]; 10000 μM agent): 870 cpm TCA precipitable [3H]NAD p

Compound: Cc1ccc(C2(O)CCN(CCCC(=O)c3ccc(F)cc3)CC2)cc1 [Moperone, 1(4-fluorophenyl)-4-[4-hydroxy-4(4-methylphenyl)1-piperidinyl]-1-butanone]
cytotoxicity at 0.5 h, 100 µM [2, 6]: 5%
cytotoxicity at 0.5 h, 500 µM [2, 7]: 7%
cytotoxicity at 0.5 h, 1000 µM ([2]; 1000 μM agent, 30 min incubation, HML, read-out: % Dead Cells 30 min): 26%
cytotoxicity at 18 h, 1000 µM ([2]; 1000 μM agent, 18 hr incubation, HML, read-out: % Dead Cells 18 hr): 100%
ADPRT Activity ([3]; 100 μM agent): 529 cpm TCA precipitable [3H]NAD p
ADPRT Activity ([3]; 500 μM agent): 712 cpm TCA precipitable [3H]NAD p
ADPRT Activity ([3]; 1000 μM agent): 1112 cpm TCA precipitable [3H]NAD p

Compound: NC(=O)c1cccnc1 [Nicotinamide]
Radiosensitization of adenocarcinoma [5]: will radiosensitize

Compound: CC(CN(C)C)CN1c2ccccc2Sc2ccccc21 (centres unmarked) [Trimeprazine]
cytotoxicity at 0.5 h, 500 µM [2]: 95%
cytotoxicity at 0.5 h, 100 µM [2, 6]: 7%
ADPRT Activity ([3]; 100 μM agent): 639 cpm TCA precipitable [3H]NAD p
ADPRT Activity ([3]; 500 μM agent): 571 cpm TCA precipitable [3H]NAD p

Compound: NCCCCCCNS(=O)(=O)c1cccc2ccccc12 [W-5, N(6-aminohexyl)-naphthalenesulfonamide]
cytotoxicity at 0.5 h, 50 µM ([2]; 50 μM agent, 30 min incubation, HML, read-out: % Dead Cells 30 min): < 5%
cytotoxicity at 0.5 h, 100 µM [2, 6]: < 5%
cytotoxicity at 0.5 h, 200 µM ([2]; 200 μM agent, 30 min incubation, HML, read-out: % Dead Cells 30 min): 7%
Calmodulin antagonist activity at fixed concentration (calmodulin; 50 μM): inactive
IC50 (calmodulin; Hidaka et al, Proc. Natl. Acad. Sci. U.S.A. 78:4354-4357, 1981, read-out: IC50 dose as calmodulin antagonist): ~250 µM
ADPRT Activity ([3]; 50 μM agent): 395 cpm TCA precipitable [3H]NAD p
ADPRT Activity ([3]; 100 μM agent): 415 cpm TCA precipitable [3H]NAD p
ADPRT Activity ([3]; 200 μM agent): 425 cpm TCA precipitable [3H]NAD p

Compound: NCCCCCCNS(=O)(=O)c1cccc2c(Cl)cccc12 [W-7, N(6-aminohexyl)-5-chloro-1-naphthalenesulfonamide]
cytotoxicity at 0.5 h, 50 µM [2]: 10%
cytotoxicity at 0.5 h, 100 µM [2]: 25%
cytotoxicity at 0.5 h, 200 µM [2]: 90%
ADPRT Activity ([3]; 50 μM agent): 750 cpm TCA precipitable [3H]NAD p
ADPRT Activity ([3]; 100 μM agent): 910 cpm TCA precipitable [3H]NAD p
ADPRT Activity ([3]; 200 μM agent): 1480 cpm TCA precipitable [3H]NAD p

Compound: NC(=O)c1ccccc1 [benzamide]
Radiosensitization of adenocarcinoma [5]: totally ineffective

Compound: O=C(O)c1ccccc1 [benzoic acid]
Inhibition of ADPRT (ADPRT): failed to inhibit ADPRT

Compound: O=C(O)c1ccncc1 [isonicotinic acid]
Inhibition of ADPRT (ADPRT): failed to inhibit ADPRT

Compound: pyrazine 1,2-dicarboxylic acid
Inhibition of ADPRT (ADPRT): failed to inhibit ADPRT
